These are literature values, as cited in article PMC7395068, “The evolution of strategies to minimise the risk of human drug-induced liver injury (DILI) in drug discovery and development” (Archives of Toxicology, 2020).

The test system of data set [1] is THLE-Null and THLE-3A4 cells. The settings on record: In vitro Assay; ref Gustafsson 2014; cited from earlier work.
Data set [2] concerns HepG2 cells, primary human hepatocytes. The settings on record: In vitro Assay; ref Garside 2014; cited from earlier work.
Data set [3] has as its system rBsep. On the set-up: method as in Dawson 2012. The settings on record: In vitro Assay; ref Dawson 2012; cited from earlier work.
For data set [4] the following is noted: cited from earlier work.
For data set [5], the system named is isolated mouse liver mitochondria. The note with it: In vitro Assay; ref Porceddu 2012; cited from earlier work.
For data set [6] the following is noted: ref Chen 2016; cited from earlier work.
In data set [7] the test system is THLE or HepG2 cells, isolated mitochondria, BSEP. The note with it: In vitro Assay; ref Aleo 2019; cited from earlier work.
In data set [8] the test system is human hepatocytes. The settings on record: In vitro Assay; ref Xu 2008; cited from earlier work.
Data set [9] concerns HepG2 cells. The settings on record: In vitro Assay; ref O'Brien 2006; cited from earlier work.
Data set [10] concerns HepG2 cells. The note with it: In vitro Assay; ref Persson 2013; cited from earlier work.
Data set [11] concerns rBsep. The settings on record: In vitro Assay; ref Dawson 2012; cited from earlier work.
Data set [12] has as its system PHH spheroids. The note with it: In vitro Assay; ref Vorrink 2018; cited from earlier work.
The test system of data set [13] is Upcyte human hepatocytes. The note with it: In vitro Assay; ref Tolosa 2019; cited from earlier work.
Data set [14] relates to HepG2 cells. The settings on record: cited from earlier work.

Read-outs that look alike come from different tables or passages of the source.

With `CCC(=O)O[C@]1(C(=O)CCl)[C@@H](C)C[C@H]2[C@@H]3CCC4=CC(=O)C=C[C@]4(C)[C@@]3(F)[C@@H](O)C[C@@]21C` [clobetasol propionate], in data set [1], the THLE-Null entry is given as “-VE” and the THLE-Null/3A4 entry is given as “-VE”. Also, the “Cluster 1-6 +VE Assay” value in [2] is given as “-VE”. Besides, in data set [3], the “Inhibition of rBsep cutoff<1& cmax u>.2” value was “-VE” and the “Inhibition of rBsep cutoff<3” value was “+VE”. For the same compound, in [4] (ref Dawson 2012), the “In vivo DILI” value was “-VE”. Besides, in data set [4] (ref Garside 2014), the “In vivo DILI” value is on record as “-VE”. The “In vivo DILI” value in data set [4] (ref Gustafsson 2014) is “-VE”.
Take `CC(C)(S)[C@@H](N)C(=O)O` [d-penicillamine]: in data set [1], the THLE-Null entry is recorded as “-VE” and the THLE-Null/3A4 entry is recorded as “-VE”. In [3], the “Inhibition of rBsep cutoff<1& cmax u>.2” value is “-VE” and the “Inhibition of rBsep cutoff<3” value is reported as “-VE”. Moreover, in [5], the “in vitro data EC2<=1x Cmax” value was “+VE” and the “in vitro data EC20<=2uM” value is “-VE”. Also, the “In vivo DILI” value in data set [4] (ref Dawson 2012) is reported as “+VE”. Also, the “In vivo DILI” value in data set [4] (ref Gustafsson 2014) is listed as “+VE”. For the same compound, the “In vivo DILI” value in data set [4] (ref Porceddu 2012) is reported as “+VE”.
Turning to `Cc1onc(-c2c(Cl)cccc2Cl)c1C(=O)N[C@@H]1C(=O)N2[C@@H]1SC(C)(C)[C@@H]2C(=O)O` [dicloxacillin], in data set [1], the THLE-Null entry is on record as “-VE” and the THLE-Null/3A4 entry is listed as “-VE”. In addition, the “Cluster 1-6 +VE Assay” value in data set [2] is “+VE”. Moreover, in data set [3], the “Inhibition of rBsep cutoff<1& cmax u>.2” value is recorded as “-VE” and the “Inhibition of rBsep cutoff<3” value is listed as “+VE”. In [4] (ref Dawson 2012), the “In vivo DILI” value was “+VE”. Moreover, the “In vivo DILI” value in data set [4] (ref Garside 2014) is “+VE”. The “In vivo DILI” value in data set [4] (ref Gustafsson 2014) is “+VE”. In [6], the “DILI +VE (5-8), DILI -VE (-4)” value is recorded as “+VE” and the DILI severity category entry is given as “vLess-DILI-Concern”.
As for `CCC(=O)O[C@H]1[C@H](O[C@@H]2[C@@H](C)[C@H](O[C@H]3C[C@@](C)(OC)[C@@H](O)[C@H](C)O3)[C@@H](C)C(=O)O[C@H](CC)[C@@](C)(O)[C@H](O)[C@@H](C)C(=O)[C@H](C)C[C@@]2(C)O)O[C@H](C)C[C@@H]1N(C)C` [erythromycin estolate], the “Partition Hybrid HRM Score” value in [7] is reported as “+VE”. Moreover, in [7], the “Ro2 Hybrid HRM Score” value was “+VE”. For the same compound, in data set [3], the “Inhibition of rBsep cutoff<1& cmax u>.2” value is recorded as “+VE”. For the same compound, the “Inhibition of rBsep cutoff<3” value in data set [3] is reported as “+VE”. In addition, the “In vivo DILI” value in data set [4] (ref Aleo 2019), in [4] (ref Dawson 2012) and in [4] (ref Xu 2008) was “+VE” throughout. Besides, the “Structural based (HCI)” value in data set [8] is on record as “+VE”.
Consider `COc1ccc(Cl)cc1C(=O)NCCc1ccc(S(=O)(=O)NC(=O)NC2CCCCC2)cc1` [glibenclamide], for which the “Cluster 1-6 +VE Assay” value in data set [2] was “+VE”. In data set [3], the “Inhibition of rBsep cutoff<1& cmax u>.2” value was “+VE” and the “Inhibition of rBsep cutoff<3” value was “+VE”.
With `CC(C)NCC(O)c1ccc(O)c(O)c1` (stereo not shown) [isoproterenol], the THLE-Null entry in [1] was “-VE”. Besides, the THLE-Null/3A4 result in data set [1] is listed as “-VE”. In addition, the “Structural based (HCI)” value in data set [9], in data set [10] and in data set [8] was “-VE” throughout. The “Cluster 1-6 +VE Assay” value in data set [2] is given as “+VE”. In addition, the “Partition Hybrid HRM Score” value in [7] was “-VE”. Moreover, the “Ro2 Hybrid HRM Score” value in [7] is listed as “-VE”. Moreover, the Cluser analysis result in [10] is reported as “-VE”. In data set [11], the “Inhibition of rBsep cutoff<1& cmax u>.2” value was “-VE”. In addition, the “Inhibition of rBsep cutoff<3” value in [11] is on record as “-VE”. For the same compound, the “In vivo DILI” value in data set [4] (ref Aleo 2019), in data set [4] (ref Dawson 2012), in data set [4] (ref Garside 2014), in data set [4] (ref Gustafsson 2014), in data set [4] (ref O'Brien 2006) and in data set [4] (ref Persson 2013) was “-VE” each time. In addition, the “In vivo DILI” value in data set [4] (ref Tolosa 2019), in data set [4] (ref Vorrink 2018) and in data set [4] (ref Xu 2008) was “-VE” throughout. Also, the “hLiMTs ATP <20 x Cmax” value in data set [12] was “-VE”. In addition, the “Upcytes multi donor assay 14day data” value in data set [13] is reported as “-VE”. Also, the “DILI +VE (5-8), DILI -VE (-4)” value in [6] was “-VE”. Further, the DILI severity category result in [6] is “vNo-DILI-Concern”.
On to `CN1CCC(=C2c3ccccc3CC(=O)c3sccc32)CC1` [ketotifen, reference compound], for which, in [1], the THLE-Null entry is on record as “-VE”. For the same compound, in data set [1], the THLE-Null/3A4 result is reported as “-VE”. Further, the “Structural based (HCI)” value in data set [9] is reported as “-VE”; in [14] (In vitro Assay, ref Tolosa 2012) it was “+VE”; in data set [8], “-VE”. Further, in [2], the “Cluster 1-6 +VE Assay” value is given as “+VE”. Moreover, in data set [11], the “Inhibition of rBsep cutoff<1& cmax u>.2” value is “-VE”. For the same compound, the “Inhibition of rBsep cutoff<3” value in [11] was “-VE”. Also, the “In vivo DILI” value in data set [4] (ref Dawson 2012) is listed as “-VE”; in data set [4] (ref Garside 2014) it was “+VE”; in [4] (ref Gustafsson 2014), “+VE”; in [4] (ref O'Brien 2006), “-VE”; in data set [4] (ref Tolosa 2012), “-VE”; in data set [4] (ref Tolosa 2019), “+VE”. The “In vivo DILI” value in [4] (ref Xu 2008) is “-VE”. Moreover, the “DILI in vitro assay prediction, Tolosa (2012)” value in [14] (Structural based (HCI), HepG2, ref Tolosa et al. 2012) is reported as “false-positive”. Besides, the “Upcytes multi donor assay 14day data” value in data set [13] is reported as “+VE”.
Regarding `COc1ccc(C(=O)NCc2cccnc2)cc1C(=O)NCc1cccnc1` [picotamide], the “Structural based (HCI)” value in data set [9] was “+VE (lowest HCI endpoint IC50 (or in the absence of dose–response < 100 µM) < 30 × total human plasma exposure levels (Cmax.tot))”. Also, in data set [3], the “Inhibition of rBsep cutoff<1& cmax u>.2” value was “-VE”. The “Inhibition of rBsep cutoff<3” value in data set [3] is recorded as “-VE”. Also, the “In vivo DILI” value in data set [4] (ref Dawson 2012), in data set [4] (ref Gustafsson 2014) and in data set [4] (ref O'Brien 2006) was “-VE” throughout.
